Source: US10336761B2, “TGFβ receptor antagonist” (BRISTOL-MYERS SQUIBB COMPANY, priority 2015, dated 2019)

Target: HIS-TGFβR1 T204D (Homo sapiens (Human), UniProt P36897, T204D)
Assay: HTRF probe-displacement assay, HIS-TGFβR1 T204D
Format: binding
Settings: 1 hour at room temperature

Chain of HIS-TGFβR1 T204D (P36897 34-503 T204D): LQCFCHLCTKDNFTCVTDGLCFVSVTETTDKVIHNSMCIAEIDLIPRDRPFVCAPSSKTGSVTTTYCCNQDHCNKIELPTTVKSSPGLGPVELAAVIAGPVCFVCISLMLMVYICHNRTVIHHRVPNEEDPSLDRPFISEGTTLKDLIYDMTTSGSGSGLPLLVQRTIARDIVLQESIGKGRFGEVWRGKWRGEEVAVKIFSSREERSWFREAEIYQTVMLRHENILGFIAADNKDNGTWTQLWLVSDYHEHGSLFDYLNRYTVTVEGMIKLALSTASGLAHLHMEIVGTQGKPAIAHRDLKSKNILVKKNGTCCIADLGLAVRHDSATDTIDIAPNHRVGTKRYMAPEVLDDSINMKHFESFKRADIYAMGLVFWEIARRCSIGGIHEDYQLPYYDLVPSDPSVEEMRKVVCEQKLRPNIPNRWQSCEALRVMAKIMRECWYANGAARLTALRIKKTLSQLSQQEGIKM

IC50 | Compound
61 nM | O=C(N[C@H]1CCC[C@@H]1O)c1cnccc1Nc1nc(-c2cccc(C(F)F)n2)nn2cccc12 [Example 199, 4-({2-[6-(difluoromethyl)pyridin-2-yl]pyrrolo[2,1-f][1,2,4]triazin-4-yl}amino)-N-[(1S,2S)-2-hydroxycyclopentyl]pyridine-3-carboxamide]
65 nM | NC(=O)c1cccc(-c2nc(Nc3ccncc3F)c3cccn3n2)n1 [Example 5, 6-{4-[(3-fluoropyridin-4-yl)amino]pyrrolo[2,1-f][1,2,4]triazin-2-yl}pyridine-2-carboxamide]
1.6 nM | Cc1cccc(-c2nc(Nc3ccncc3Cl)c3cccn3n2)n1 [Example 59, 3-chloro-N-[2-(6-methylpyridin-2-yl)pyrrolo[2,1-f][1,2,4]triazin-4-yl]pyridin-4-amine]
32 nM | O=C(NCc1ccccn1)c1cnccc1Nc1nc(-c2cccc(C(F)F)n2)nn2cccc12 [Example 181, 4-({2-[6-(difluoromethyl)pyridin-2-yl]pyrrolo[2,1-f][1,2,4]triazin-4-yl}amino)-N-(pyridin-2-ylmethyl)pyridine-3-carboxamide]
42 nM | O=C(NCc1ccn[nH]1)c1cnccc1Nc1nc(-c2cccc(C(F)F)n2)nn2cccc12 [Example 197, 4-({2-[6-(difluoromethyl)pyridin-2-yl]pyrrolo[2,1-f][1,2,4]triazin-4-yl}amino)-N-(1H-pyrazol-5-ylmethyl)pyridine-3-carboxamide]
2.7 nM | O=C(CCN1CC(F)(F)C1)Nc1cc(Nc2nc(-c3cccc(C(F)(F)F)n3)nn3cccc23)ccn1 [Example 341, 3-(3,3-difluoroazetidin-1-yl)-N-[4-({2-[6-(trifluoromethyl)pyridin-2-yl]pyrrolo[2,1-f][1,2,4]triazin-4-yl}amino)pyridin-2-yl]propanamide]
3500 nM | O=C(c1cnccc1Nc1nc(-c2cccc(C(F)F)n2)nn2cccc12)N1CCC(O)CC1 [Example 200, 1-[4-({2-[6-(difluoromethyl)pyridin-2-yl]pyrrolo[2,1-f][1,2,4]triazin-4-yl}amino)pyridine-3-carbonyl]piperidin-4-ol]
22 nM | CCOC(=O)CNC(=O)c1cnccc1Nc1nc(-c2cccc(C(F)F)n2)nn2cccc12 [Example 190, Ethyl 2-{[4-({2-[6-(difluoromethyl)pyridin-2-yl]pyrrolo[2,1-f][1,2,4]triazin-4-yl}amino)pyridin-3-yl]formamido}acetate]
22 nM | Cc1nc(-c2nc(Nc3ccncc3C(=O)NCCN3CCS(=O)(=O)CC3)c3cccn3n2)ccc1F [Example 35, N-[2-(1,1-dioxo-1,4-thiomorpholin-4-yl)ethyl]-4-{[2-(5-fluoro-6-methylpyridin-2-yl)pyrrolo[2,1-f][1,2,4]triazin-4-yl]amino}pyridine-3-carboxamide]
0.84 nM | CC(=O)Nc1cc(Nc2nc(-c3ccc(F)c(C)n3)nn3cccc23)ccn1 [Example 19, N-(4-{[2-(5-fluoro-6-methylpyridin-2-yl)pyrrolo[2,1-f][1,2,4]triazin-4-yl]amino}pyridin-2-yl)acetamide]
86 nM | COc1cccc(-c2nc(Nc3ccncc3F)c3cc(NC(C)=O)cn3n2)n1 [Example 104, N-{4-[(3-fluoropyridin-4-yl)amino]-2-(6-methoxypyridin-2-yl)pyrrolo[2,1-f][1,2,4]triazin-6-yl}acetamide]
360 nM | N#Cc1cc(Nc2nc(-c3cccc(C(F)(F)F)n3)nn3cccc23)ccn1 [Example 292, 4-({2-[6-(trifluoromethyl)pyridin-2-yl]pyrrolo[2,1-f][1,2,4]triazin-4-yl}amino)pyridine-2-carbonitrile]

The remaining lines, values behind:

Compound | IC50
CN1CCC(CCNCc2ccn3nc(-c4ccccn4)nc(Nc4ccncc4F)c23)CC1 [Example 303, 3-fluoro-N-[5-({[2-(1-methylpiperidin-4-yl)ethyl]amino}methyl)-2-(pyridin-2-yl)pyrrolo[2,1-f][1,2,4]triazin-4-yl]pyridin-4-amine] | 5.4 nM
Fc1cnccc1Nc1nc(-c2ccccn2)nn2ccc(CN[C@H]3CCN(Cc4ccccc4)C3)c12 [Example 285, N-[5-({[(3S)-1-benzylpyrrolidin-3-yl]amino}methyl)-2-(pyridin-2-yl)pyrrolo[2,1-f][1,2,4]triazin-4-yl]-3-fluoropyridin-4-amine] | 1.2 nM
COc1cccc(-c2nc(Nc3ccncc3F)c3c(C(C)(C)O)ccn3n2)n1 [Example 48, 2-{4-[(3-fluoropyridin-4-yl)amino]-2-(6-methoxypyridin-2-yl)pyrrolo[2,1-f][1,2,4]triazin-5-yl}propan-2-ol] | 32 nM
Cc1csc(-c2nc(Nc3ccncc3Cl)c3cccn3n2)n1 [Example 87, 3-chloro-N-[2-(4-methyl-1,3-thiazol-2-yl)pyrrolo[2,1-f][1,2,4]triazin-4-yl]pyridin-4-amine] | 0.92 nM
COc1cccc(-c2nc(Nc3ccncc3F)c3c(CN4CCC(F)(F)CC4)ccn3n2)n1 [Example 25, N-{5-[(4,4-difluoropiperidin-1-yl)methyl]-2-(6-methoxypyridin-2-yl)pyrrolo[2,1-f][1,2,4]triazin-4-yl}-3-fluoropyridin-4-amine] | 9 nM
Cc1cncc(-c2nc(Nc3ccncc3F)c3cccn3n2)n1 [Example 71, 3-fluoro-N-[2-(6-methylpyrazin-2-yl)pyrrolo[2,1-f][1,2,4]triazin-4-yl]pyridin-4-amine] | 96 nM
COc1cccc(-c2nc(Nc3ccncc3F)c3cc(CN4CCC(F)(F)CC4)cn3n2)n1 [Example 40, N-{6-[(4,4-difluoropiperidin-1-yl)methyl]-2-(6-methoxypyridin-2-yl)pyrrolo[2,1-f][1,2,4]triazin-4-yl}-3-fluoropyridin-4-amine] | 230 nM
Fc1cnccc1Nc1nc(-c2ccccn2)nn2ccc(CNCC3CCNCC3)c12 [Example 238, 3-fluoro-N-(5-{[(piperidin-4-ylmethyl)amino]methyl}-2-(pyridin-2-yl)pyrrolo[2,1-f][1,2,4]triazin-4-yl)pyridin-4-amine] | 2.9 nM
COc1cccc(-c2nc(Nc3ccncc3F)c3c(CN4CCN(C)CC4)ccn3n2)n1 [Example 121, 3-fluoro-N-[2-(6-methoxypyridin-2-yl)-5-[(4-methylpiperazin-1-yl)methyl]pyrrolo[2,1-f][1,2,4]triazin-4-yl]pyridin-4-amine] | 22 nM
NCCCNCc1ccn2nc(-c3ccccn3)nc(Nc3ccncc3F)c12 [Example 286, N-(5-{[(3-aminopropyl)amino]methyl}-2-(pyridin-2-yl)pyrrolo[2,1-f][1,2,4]triazin-4-yl)-3-fluoropyridin-4-amine] | 2.9 nM
O=c1[nH]c2ccccc2n1C1CCN(Cc2ccn3nc(-c4ccccn4)nc(Nc4ccncc4F)c23)CC1 [Example 278, 1-[1-({4-[(3-fluoropyridin-4-yl)amino]-2-(pyridin-2-yl)pyrrolo[2,1-f][1,2,4]triazin-5-yl}methyl)piperidin-4-yl]-2,3-dihydro-1H-1,3-benzodiazol-2-one] | 1.8 nM
Cc1cncc(-c2nc(Nc3ccncc3Cl)c3cccn3n2)n1 [Example 6, 3-chloro-N-[2-(6-methylpyrazin-2-yl)pyrrolo[2,1-f][1,2,4]triazin-4-yl]pyridin-4-amine] | 68 nM
Fc1cnccc1Nc1nc(-c2ccccn2)nn2ccc(CNc3cc(-c4ccccc4)[nH]n3)c12 [Example 298, 3-fluoro-N-(5-{[(5-phenyl-1H-pyrazol-3-yl)amino]methyl}-2-(pyridin-2-yl)pyrrolo[2,1-f][1,2,4]triazin-4-yl)pyridin-4-amine] | 27 nM
